Data reported in patent US10206944B2, “Chondroitin for use in medicine” (ALTERGON S.A., priority 2012, dated 2019).

Legend:
[1] = test system: Escherichia coli strain ATCC 25922; assay: Inhibition of bacterial growth on plate, E. coli; format: cell-based
Experimental: The antibacterial activity of chondroitin (C) and chondroitin sulphate (CS) on the growth of Escherichia coli ATCC 25922 and Enterococcus faecalis ATCC 19433 on a solid medium in vitro was examined. The concentrations explored ranged from 40 μg/mL to 40 mg/mL of C or CS as final concentrations in the medium. Brain-heart infusion (Oxoid) was used as culture medium for E. coli ATCC 25922, and M17 (Oxoid) for E. faecalis ATCC 19433; both media were adjusted to the same pH and the same osmolarity before being solidified by adding agar and cooled. 100 μL of a bacterial suspension containing 10^2, 10^3 or 10^4 bacteria/mL was plated as inoculum. The plates inoculated were incubated in shakers in air at 37° C. for 16 h. The number of colonies was then counted on control plates in the absence of the substances under study and on plates at the various concentrations of C and CS. The data from the experiments for the two micro-organisms, conducted in triplicate for each of the conditions, are shown in tables 7 and 8.

Collagen Type I = assay: Real-Time PCR gene expression in human chondrocytes: type I collagen; format: cell-based; conditions: for Fold Expression, Collagen Type I: 1% w/v, ratio to untreated control
Experimental: To evaluate the biological effects of chondroitin on human chondrocyte cultures, the expression of a set of genes considered key to establishing the phenotype, and suitable markers for evaluating the quality of the tissue generated, was determined. The study was conducted on chondrocytes prepared from human cartilage, as reported in Example 2, the cells being grown in the presence of chondroitin or chondroitin sulphate. Using a standard procedure, 5*10^4 cells per well were seeded in a 24-well multiwell plate. The chondrocytes were grown in DMEM containing 1% w/v of chondroitin or chondroitin sulphate (endotoxin content ≤0.1 EU/mg). The cells were stimulated for 4, 7 and 10 days (Ishak et al., International J. of Pediatric Otorhinolaryngology, 2011, 75: 835-840), after which the RNA was extracted with Trizol Reagent, as described in the kit manual (Life Technologies Ltd, Milan, Italy). A qualitative morphological analysis of the cell culture was also conducted at the various times, in parallel with RNA extraction, by observing the corresponding samples at 4, 7 and 10 days under the optical microscope. The cells seeded at the three different times were observed under the microscope, and the images that best represented the cell growth conditions were acquired using a time-lapse videomicroscopy workstation. After RNA extraction, reverse transcription was performed with a total of 1 μg RNA and then with amplification by Real-Time PCR of genes which are specific markers for chondrocytes (Table 3).
Genes connected with matrix production, such as aggrecan, type I collagen, type II collagen and the Sox9 gene, the expression of which is closely correlated with the expression of type II collagen, were analysed as specific markers for differentiation and characterisation of chondrocytes. (Akiyama H., Mod Rheumatol., 2008, 18(3): 213-9; Yang et al., J. of Orthopaedic Res. 2011).
The gene expression of said markers on human chondrocytes cultured in basic medium (control) and with chondroitin treatment (C) or chondroitin sulphate treatment (CS) was analysed on cell cultures in the second and third growth phases.
The results of the gene expression analysis were reported as the average of at least 3 independent experiments for tests conducted in the presence of C or CS, on cells in phases 2 and 3.

[2] = 40 μg/mL, 10 bacteria inoculated
[3] = 40 μg/mL, 100 bacteria inoculated
[4] = 40 μg/mL, 1000 bacteria inoculated
[5] = 400 μg/mL, 10 bacteria inoculated
[6] = 400 μg/mL, 100 bacteria inoculated
[7] = 400 μg/mL, 1000 bacteria inoculated
[8] = 4 mg/mL, 10 bacteria inoculated
[9] = 4 mg/mL, 100 bacteria inoculated
[10] = 4 mg/mL, 1000 bacteria inoculated
[11] = 40 mg/mL, 10 bacteria inoculated
[12] = 40 mg/mL, 100 bacteria inoculated
[13] = 40 mg/mL, 1000 bacteria inoculated

**Q.** For chondroitin, which Inhibition factor ([1]; 40 μg/mL) is on record?
**A.** 1.3

**Q.** And the “Qualitative valuation of inhibition” value ([1]; 40 μg/mL)?
**A.** mild

**Q.** And the “CFU after 16 h” value [1, 2]?
**A.** 7 ± 2 CFU

**Q.** What about the “CFU after 16 h” value [1, 3] of the same substance?
**A.** 80 ± 5 CFU

**Q.** What about the “CFU after 16 h” value [1, 4] of the same substance?
**A.** 800 ± 70 CFU

**Q.** And the Inhibition factor ([1]; 400 μg/mL)?
**A.** 9

**Q.** And the “Qualitative valuation of inhibition” value ([1]; 400 μg/mL)?
**A.** significant

**Q.** What about the “CFU after 16 h” value [1, 5] of the same substance?
**A.** 2 ± 1 CFU

**Q.** And the “CFU after 16 h” value [1, 6]?
**A.** 10 ± 2 CFU

**Q.** And the “CFU after 16 h” value [1, 7]?
**A.** 120 ± 30 CFU

**Q.** What about the Inhibition factor ([1]; 4 mg/mL) of the same substance?
**A.** 66

**Q.** What about the “Qualitative valuation of inhibition” value ([1]; 4 mg/mL) of the same substance?
**A.** high

**Q.** And the “CFU after 16 h” value [1, 8]?
**A.** 0 CFU

**Q.** And the “CFU after 16 h” value [1, 9]?
**A.** 1 ± 1 CFU

**Q.** And the “CFU after 16 h” value [1, 10]?
**A.** 20 ± 4 CFU

**Q.** And the Inhibition factor ([1]; 40 mg/mL)?
**A.** 1000

**Q.** And the “Qualitative valuation of inhibition” value ([1]; 40 mg/mL)?
**A.** total inhibition of growth

**Q.** And the “CFU after 16 h” value [1, 11]?
**A.** 0 CFU

**Q.** And the “CFU after 16 h” value [1, 12]?
**A.** 0 CFU

**Q.** What about the “CFU after 16 h” value [1, 13] of the same substance?
**A.** 0 CFU

**Q.** What about the “Fold Expression, Collagen Type I” value (Collagen Type I; phase II, 4 g) of the same substance?
**A.** 1.23 ± 0.29

**Q.** And the “Fold Expression, Collagen Type I” value (Collagen Type I; phase II, 7 g)?
**A.** 1.03 ± 0.52

**Q.** What about the “Fold Expression, Collagen Type I” value (Collagen Type I; phase II, 10 g) of the same substance?
**A.** 0.67 ± 0.20

**Q.** And the “Fold Expression, Collagen Type I” value (Collagen Type I; phase III, 4 g)?
**A.** 0.24 ± 0.01

**Q.** And the “Fold Expression, Collagen Type I” value (Collagen Type I; phase III, 7 g)?
**A.** 0.85 ± 0.49

**Q.** What about the “Fold Expression, Collagen Type I” value (Collagen Type I; phase III, 10 g) of the same substance?
**A.** 0.59 ± 0.13

**Q.** And the “reduction in expression of type I collagen” value (Collagen Type I; growth phase 2, long incubation times, versus control)?
**A.** 30%

**Q.** With “chondroitin sulphate [CS, reference compound]” as the substance, how does the Inhibition factor ([1]; 40 μg/mL) read?
**A.** 1

**Q.** What about the “CFU after 16 h” value [1, 2] of the same substance?
**A.** 7 ± 2 CFU

**Q.** And the “CFU after 16 h” value [1, 3]?
**A.** 85 ± 7 CFU

**Q.** And the “CFU after 16 h” value [1, 4]?
**A.** 860 ± 70 CFU

**Q.** And the Inhibition factor ([1]; 400 μg/mL)?
**A.** 2

**Q.** And the “Qualitative valuation of inhibition” value ([1]; 400 μg/mL)?
**A.** mild

**Q.** And the “CFU after 16 h” value [1, 5]?
**A.** 5 ± 1 CFU

**Q.** What about the “CFU after 16 h” value [1, 6] of the same substance?
**A.** 50 ± 5 CFU

**Q.** And the “CFU after 16 h” value [1, 7]?
**A.** 400 ± 70 CFU

**Q.** What about the Inhibition factor ([1]; 4 mg/mL) of the same substance?
**A.** 10

**Q.** What about the “Qualitative valuation of inhibition” value ([1]; 4 mg/mL) of the same substance?
**A.** significant

**Q.** What about the “CFU after 16 h” value [1, 8] of the same substance?
**A.** 0 CFU

**Q.** What about the “CFU after 16 h” value [1, 9] of the same substance?
**A.** 9 ± 2 CFU

**Q.** And the “CFU after 16 h” value [1, 10]?
**A.** 100 ± 10 CFU

**Q.** What about the Inhibition factor ([1]; 40 mg/mL) of the same substance?
**A.** 330

**Q.** What about the “Qualitative valuation of inhibition” value ([1]; 40 mg/mL) of the same substance?
**A.** high

**Q.** And the “CFU after 16 h” value [1, 11]?
**A.** 0 CFU

**Q.** What about the “CFU after 16 h” value [1, 12] of the same substance?
**A.** 0 CFU

**Q.** What about the “CFU after 16 h” value [1, 13] of the same substance?
**A.** 3 ± 1 CFU

**Q.** What about the “Fold Expression, Collagen Type I” value (Collagen Type I; phase II, 4 g) of the same substance?
**A.** 1.20 ± 0.56

**Q.** And the “Fold Expression, Collagen Type I” value (Collagen Type I; phase II, 7 g)?
**A.** 1.44 ± 0.08

**Q.** What about the “Fold Expression, Collagen Type I” value (Collagen Type I; phase II, 10 g) of the same substance?
**A.** 1.36 ± 0.05

**Q.** And the “Fold Expression, Collagen Type I” value (Collagen Type I; phase III, 4 g)?
**A.** 0.34 ± 0.01

**Q.** And the “Fold Expression, Collagen Type I” value (Collagen Type I; phase III, 7 g)?
**A.** 2.42 ± 0.88

**Q.** What about the “Fold Expression, Collagen Type I” value (Collagen Type I; phase III, 10 g) of the same substance?
**A.** 1.09 ± 0.45
